Experimental data as given in US8377974B2 (Millennium Pharmaceuticals, Inc., priority 2004, dated 2013).

Molecular target: T1, human plasma protein factor Xa (Homo sapiens, UniProt P00742)
T1 construct: measure proteolytic activity of the enzyme (factor Xa); purchased Haematologic Technologies (Essex Junction, Vt.); host or cells: human plasma
Assay: Factor Xa IC50 determination: cleavage of paranitroanilide substrate S-2765 in 96-well plates
Assay type: biochemical
Conditions: fXa 1 nM, S-2765 100 μM, Tris buffered saline pH 7.4, room temperature
How it was run: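 Human plasma factor Xa (1 nM) preincubated 5 min at room temperature with inhibitor (0.01 nM–10 μM final) in Tris-buffered saline pH 7.4 with 5 mM CaCl2, 0.1% BSA, 5% DMSO. S-2765 at 100 μM final; hydrolysis at 405 nm over 2 min. IC50 from 4-parameter fit of initial velocities.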

T1 sequence (P00742 235-488 limits assumed): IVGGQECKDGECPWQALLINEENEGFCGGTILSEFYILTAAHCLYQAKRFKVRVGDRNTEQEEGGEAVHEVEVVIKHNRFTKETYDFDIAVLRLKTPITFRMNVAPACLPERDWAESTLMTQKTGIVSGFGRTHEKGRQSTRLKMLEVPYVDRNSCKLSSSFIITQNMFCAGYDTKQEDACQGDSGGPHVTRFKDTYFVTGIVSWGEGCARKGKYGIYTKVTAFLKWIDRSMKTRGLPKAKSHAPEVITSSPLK
T1 sequence (P00742 41-179 partner limits assumed): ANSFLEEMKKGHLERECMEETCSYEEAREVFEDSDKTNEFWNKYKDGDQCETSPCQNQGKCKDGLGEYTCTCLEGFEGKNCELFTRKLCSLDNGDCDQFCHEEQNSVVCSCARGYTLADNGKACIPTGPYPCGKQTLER

Row | SMILES | IC50
1 | CN(C)c1cc(C(=N)N2CCCCC2)ccc1-c1cc(CNC(=O)c2ccc(Cl)s2)on1 [Example 97, 5-Chloro-thiophene-2-carboxylic acid {3-[2-dimethylamino-4-(imino-piperidin-1-yl-methyl)-phenyl]-isoxazol-5-ylmethyl}-amide] | ≤ 100 nM
2 | CN1CCN(c2ccc(C3=NOC(CNC(=O)c4ccc(Cl)s4)C3)cc2)C1=O (centres unmarked) [Example 245, 5-Chloro-thiophene-2-carboxylic acid {3-[4-(3-methyl-2-oxo-imidazolidin-1-yl)-phenyl]-4,5-dihydro-isoxazol-5-ylmethyl}-amide] | ≤ 100 nM
3 | CC(C)Oc1cc(C2=NCCN2C)ccc1C1=NOC(CNC(=O)c2ccc(Cl)s2)C1 (centres unmarked) [Example 110, 5-Chloro-thiophene-2-carboxylic acid {3-[2-isopropoxy-4-(1-methyl-4,5-dihydro-1H-imidazol-2-yl)-phenyl]-4,5-dihydro-isoxazol-5-ylmethyl}-amide] | ≤ 100 nM
4 | CCCN(C)C(=N)c1ccc(C2=NOC(CNC(=O)c3ccc(Cl)s3)C2)cc1 (centres unmarked) [Example 17, 5-Chloro-thiophene-2-carboxylic acid {3-[4-(N-methyl-N-propyl-carbamimidoyl)-phenyl]-4,5-dihydro-isoxazol-5-ylmethyl}-amide] | ≤ 100 nM
5 | CC1(CNC(=O)c2ccc(Cl)s2)CC(c2ccc(C(=N)N3CCC3)cc2)=NO1 (centres unmarked) [Example 62, 5-Chloro-thiophene-2-carboxylic acid {3-[4-(azetidin-1-yl-imino-methyl)-phenyl]-5-methyl-4,5-dihydro-isoxazol-5-ylmethyl}-amide] | ≤ 100 nM
6 | O=C(NCc1cn(-c2ccc(-n3ccccc3=O)cn2)nn1)c1ccc(Cl)s1 [Example 309, 5-Chloro-N-((1-(5-(2-oxopyridin-1(2H)-yl)pyridin-2-yl)-1H-1,2,3-triazol-4-yl)methyl)thiophene-2-carboxamide] | ≤ 100 nM
7 | O=C(NCC1CC(c2ccc(Nc3ccncc3C(F)(F)F)cc2)=NO1)c1ccc(Cl)s1 (centres unmarked) [Example 403, 5-Chloro-N-((3-(4-(3-(trifluoromethyl)pyridin-4-ylamino)phenyl)-4,5-dihydroisoxazol-5-yl)methyl)thiophene-2-carboxamide] | ≤ 100 nM
8 | CN1CCN=C1c1ccc(-c2ccc(F)c(CNC(=O)c3ccc(Cl)s3)c2)cc1 [Example 375, 5-Chloro-N-((5-(4-(1-methyl-4,5-dihydro-1H-imidazol-2-yl)phenyl)-2-fluorophenyl)methyl)thiophene-2-carboxamide] | ≤ 100 nM
9 | O=C(NCC1CC(c2ccc(N3CCOCC3)cc2)=NO1)c1ccc(Cl)s1 (centres unmarked) [Example 234, 5-Chloro-thiophene-2-carboxylic acid [3-(4-morpholin-4-yl-phenyl)-4,5-dihydro-isoxazol-5-ylmethyl]-amide] | ≥ 500 nM
10 | CSc1cc(C(=N)N2CCCCC2)ccc1C1=NOC(CNC(=O)c2ccc(Cl)s2)C1 (centres unmarked) [Example 139, 5-Chloro-thiophene-2-carboxylic acid {3-[4-(imino-piperidin-1-yl-methyl)-2-methylsulfanyl-phenyl]-4,5-dihydro-isoxazol-5-ylmethyl}-amide] | ≤ 100 nM
11 | CN1CCN=C1c1ccc(C2=NOC(CNC(=O)c3ccc(Cl)s3)C2)c(OC2CCCC2)c1 (centres unmarked) [Example 113, 5-Chloro-thiophene-2-carboxylic acid {3-[2-cyclopentyloxy-4-(1-methyl-4,5-dihydro-1H-imidazol-2-yl)-phenyl]-4,5-dihydro-isoxazol-5-ylmethyl}-amide] | ≤ 100 nM
12 | O=C(NCC1CC(c2ccc(-c3ccccc3C(F)(F)F)cc2)=NO1)c1ccc(Cl)s1 (centres unmarked) [Example 187, 5-Chloro-thiophene-2-carboxylic acid [3-(2′-trifluoromethyl-biphenyl-4-yl)-4,5-dihydro-isoxazol-5-ylmethyl]-amide] | 100 to 500 nM
13 | CN(Cc1ccco1)C(=N)c1ccc(C2=NOC(CNC(=O)c3ccc(Cl)s3)C2)cc1 (centres unmarked) [Example 15, 5-Chloro-thiophene-2-carboxylic acid {3-[4-(N-furan-2-ylmethyl-N-methyl-carbamimidoyl)-phenyl]-4,5-dihydro-isoxazol-5-ylmethyl}-amide] | 100 to 500 nM
14 | CC1(CNC(=O)c2ccc(Cl)s2)CC(c2ccc(C(=N)N3CCCCC3)cc2)=NO1 (centres unmarked) [Example 60, 5-Chloro-thiophene-2-carboxylic acid {3-[4-(imino-piperidin-1-yl-methyl)-phenyl]-5-methyl-4,5-dihydro-isoxazol-5-ylmethyl}-amide] | ≤ 100 nM
15 | N=C(c1ccc(C2=NOC(CNC(=O)c3ccc(Cl)s3)C2)c(N2CCCCCC2)c1)N1CCCCC1 (centres unmarked) [Example 93, 5-Chloro-thiophene-2-carboxylic acid {3-[2-azepan-1-yl-4-(imino-piperidin-1-yl-methyl)-phenyl]-4,5-dihydro-isoxazol-5-ylmethyl}-amide] | ≤ 100 nM
16 | CCOc1cc(C2=NCCN2C)ccc1C1=NOC(CNC(=O)c2ccc(Cl)s2)C1 (centres unmarked) [Example 107, 5-Chloro-thiophene-2-carboxylic acid {3-[2-ethoxy-4-(1-methyl-4,5-dihydro-1H-imidazol-2-yl)-phenyl]-4,5-dihydro-isoxazol-5-ylmethyl}-amide] | ≤ 100 nM
17 | CC(=N)N1CCC(c2cc(CNC(=O)c3ccc(Cl)s3)on2)CC1 [Example 180, 5-Chloro-thiophene-2-carboxylic acid {3-[1-(1-imino-ethyl)-piperidin-4-yl]-isoxazol-5-ylmethyl}-amide] | ≥ 500 nM
18 | CN(C)CCN(C)c1ccc(C2=NOC(CNC(=O)c3ccc(Cl)s3)C2)cc1 (centres unmarked) [Example 238, 5-Chloro-thiophene-2-carboxylic acid (3-{4-[(2-dimethylamino-ethyl)-methyl-amino]-phenyl}-4,5-dihydro-isoxazol-5-ylmethyl)-amide] | 100 to 500 nM
19 | COc1cc(C(=N)N2CCCCC2)ccc1-c1cc(CNC(=O)c2ccc(Cl)s2)on1 [Example 121, 5-Chloro-thiophene-2-carboxylic acid {3-[4-(imino-piperidin-1-yl-methyl)-2-methoxy-phenyl]-isoxazol-5-ylmethyl}-amide] | ≤ 100 nM
20 | COCCN(C)C(=N)c1ccc(C2=NOC(CNC(=O)c3ccc(Cl)s3)C2)cc1 (centres unmarked) [Example 14, 5-Chloro-thiophene-2-carboxylic acid (3-{4-[N-(2-methoxy-ethyl)-N-methyl-carbamimidoyl]-phenyl}-4,5-dihydro-isoxazol-5-ylmethyl)-amide] | 100 to 500 nM
21 | CN(Cc1cc(-c2ccc(C(=N)N3CCC(C(N)=O)CC3)cc2)no1)C(=O)c1ccc(Cl)s1 [Example 45, 1-{[4-(5-{[(5-Chloro-thiophene-2-carbonyl)-methyl-amino]-methyl}-isoxazol-3-yl)-phenyl]-imino-methyl}-piperidine-4-carboxylic acid amide] | ≥ 500 nM
22 | CN(C)C(=N)c1ccc(-n2cc(CNC(=O)c3ccc(Cl)s3)nn2)cc1 [Example 313, N-((1-(4-(N,N-Dimethylcarbamimidoyl)phenyl)-1H-1,2,3-triazol-4-yl)methyl)-5-chlorothiophene-2-carboxamide] | ≤ 100 nM

The remaining lines, values ahead:

Row | IC50 | SMILES
23 | ≥ 500 nM | O=C(NCc1cc(-c2ccc(Cl)cc2)no1)c1ccc(Cl)s1 [Example 155, 5-Chloro-thiophene-2-carboxylic acid [3-(4-chloro-phenyl)-isoxazol-5-ylmethyl]-amide]
24 | 100 to 500 nM | O=C(NCc1cc(-c2ccc(C(=O)N3CCCC3)cc2)no1)c1ccc(Cl)s1 [Example 167, 5-Chloro-thiophene-2-carboxylic acid {3-[4-(pyrrolidine-1-carbonyl)-phenyl]-isoxazol-5-ylmethyl}-amide]
25 | ≤ 100 nM | CN(C)C(=N)c1ccc(-c2cc(CNC(=O)c3ccc(Cl)s3)ccc2F)cc1 [Example 377, N-((3-(4-(N,N-Dimethylcarbamimidoyl)phenyl)-4-fluorophenyl)methyl)-5-chlorothiophene-2-carboxamide]
26 | ≥ 500 nM | O=C(NCc1cc(-c2ccc(I)cc2)no1)c1ccc(Cl)s1 [Example 288, 5-Chloro-N-((3-(4-iodophenyl)isoxazol-5-yl)methyl)thiophene-2-carboxamide]
27 | ≤ 100 nM | CNC(=N)c1ccc(-c2cc(CN(C)C(=O)c3ccc(Cl)s3)on2)cc1 [Example 48, 5-Chloro-thiophene-2-carboxylic acid methyl-{3-[4-(N-methylcarbamimidoyl)-phenyl]-isoxazol-5-ylmethyl}-amide]
28 | ≥ 500 nM | O=C(NCC1CC(c2ccc(Br)cc2)=NO1)c1ccc(Cl)s1 (centres unmarked) [Example 1, 5-Chloro-thiophene-2-carboxylic acid [3-(4-bromo-phenyl)-4,5-dihydro-isoxazol-5-ylmethyl]-amide]
29 | ≥ 500 nM | CN1CCC(Nc2ccc(-c3cc(CNC(=O)c4ccc(Cl)s4)on3)cc2)CC1 [Example 259, 5-Chloro-thiophene-2-carboxylic acid {3-[4-(1-methyl-piperidin-4-ylamino)-phenyl]-isoxazol-5-ylmethyl}-amide]
30 | ≤ 100 nM | CC(C)Oc1cc(C2=NCCN2C)ccc1-c1cc(CNC(=O)c2ccc(Cl)s2)on1 [Example 127, 5-Chloro-thiophene-2-carboxylic acid {3-[2-isopropoxy-4-(1-methyl-4,5-dihydro-1H-imidazol-2-yl)-phenyl]-isoxazol-5-ylmethyl}-amide]
31 | ≤ 100 nM | CN(C)C(=N)c1ccc(-c2nc(CNC(=O)c3ccc(Cl)s3)co2)cc1 [Example 338, N-((2-(4-(N,N-Dimethylcarbamimidoyl)phenyl)oxazol-4-yl)methyl)-5-chlorothiophene-2-carboxamide]
32 | ≥ 500 nM | O=C(NCc1cc(-c2ccc(-c3ccc(CN4CCCC4)cc3)cc2)no1)c1ccc(Cl)s1 [Example 214, 5-Chloro-thiophene-2-carboxylic acid [3-(4′-pyrrolidin-1-ylmethyl-biphenyl-4-yl)-isoxazol-5-ylmethyl]-amide]
